Data from paper PMC6694038, “Pharmacogenomic–pharmacokinetic study of selective estrogen-receptor modulators with intra-patient dose escalation in breast cancer” (Breast Cancer (Tokyo, Japan), 2019).

What was measured:
[1] = weighting of plasma concentration; cited from earlier work
[2] = patients homozygous for CYP2D6 PM genotype on double dose (40 mg) of TAM; cited from earlier work
[3] = Plasma concentrations of TAM, TOR and their metabolites by LC–MS/MS (screening study)
[4] = 14 poor TAM metabolizers enrolled in the dose-escalation study
[5] = patients on TAM 20 mg a day, N=182

- Endoxifen on TAM 20 mg, max [3, 4]: 12.6 ng/mL
- Endoxifen on TAM 20 mg, mean [3, 4]: 9.7 ng/mL
- Endoxifen on TAM 20 mg, median [3, 4]: 10.4 ng/mL
- Endoxifen on TAM 20 mg, min [3, 4]: 1.8 ng/mL
- Patients with endoxifen levels lower than 15 ng/mL ([3]; among the 182 patients on TAM): 50
- Patients with endoxifen levels < 7.5 ng/mL ([3]; of the 273 participating patients): 11
- Plasma concentration, max [3, 5]: 64.5 ng/mL
- Plasma concentration, mean [3, 5]: 23.5 ng/mL
- Plasma concentration, median [3, 5]: 22.8 ng/mL
- Plasma concentration, min [3, 5]: 1.8 ng/mL
- Plasma concentration, variability (range) ([3]; patients taking TAM 20 mg a day): 1.8 to 64.5 ng/mL
Compound: CC/C(=C(\c1ccc(O)cc1)c1ccc(OCCNC)cc1)c1ccccc1 [Endoxifen, endoxifen]
- In vitro activity factor in the total activity of TAM (TAM = 1.0) [1]: 46.3
- Endoxifen concentration relative to EMs [2]: less than one-half of the endoxifen concentrations for EMs
